Holding throughout (assay): NCI tumour cell line growth inhibition, 48 h
Assay [1] deals with 786-0.
Assay [2] deals with CAKI-1.
Assay [3] deals with EKVX.
For assay [4], the system named is KM12.
Assay [5] has as its system OVCAR-8.
Assay [6] has as its system RPMI-8226.
Assay [7] concerns RXF 393.
Assay [8] has as its system SF-295.
Assay [9] concerns SK-MEL-2.
Assay [10] deals with SR.
Assay [11] concerns TK-10.
Assay [12] relates to UACC-257.
In assay [13] the test system is UACC-62.
For assay [14], the system named is A498.
In assay [15] the test system is OVCAR-3.
Assay [16] relates to SF-268.
In assay [17] the test system is SK-MEL-28.
The test system of assay [18] is SNB-19.

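Assay format: 96-well plates, 48-hour exposure. Abbreviation: GI50, concentration required for 50% inhibition of growth.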 Active and inactive are the calls of the source. Rule as the data show it: active = GI50 up to about 1.1 µM and inactive = higher.

On to `Clc1ccc2[nH]c(CCSCCc3nc4ccc(Cl)cc4[nH]3)nc2c1`, for which the GI50 is 13.5 µM (inactive) in [1]; 4.55 µM (inactive) in assay [2]; 16.9 µM (inactive) in [3]; 15.2 µM (inactive) in assay [4]; 14.2 µM (inactive) in [5]; 2.34 µM (inactive) in [6]. Besides, the GI50 is 17.5 µM (inactive) in assay [7]; 7.62 µM (inactive) in assay [8]; 15.3 µM (inactive) in assay [9]; 0.181 µM (active) in assay [10]; 10.3 µM (inactive) in assay [11]; 12.7 µM (inactive) in assay [12]. In [13], the GI50 was 5.64 µM (inactive).

Turning to `COc1cc(NCC(C#N)C#N)ccc1/N=N/c1ccc(Cl)cc1`, the GI50 in [1] was 20 µM (inactive); in [14], 44.7 µM (inactive); in assay [3] it was 21.1 µM (inactive); in [4] it was 14.2 µM (inactive); in assay [15], 20.6 µM (inactive); in [5], 29.7 µM (inactive). Besides, the GI50 in [6] is 28.6 µM (inactive); in assay [7] it was 43.6 µM (inactive); in assay [16] it was 38.5 µM (inactive); in assay [8], 22.3 µM (inactive); in assay [17], 27.2 µM (inactive); in assay [9], 21.7 µM (inactive). Besides, the GI50 in assay [18] was 13.1 µM (inactive); in assay [10], 12.8 µM (inactive); in assay [11], 29.8 µM (inactive); in assay [13], 10.6 µM (inactive).

As for `O=C1CCC2(c3ccccc3)OCC([C@@H](O)c3ccccc3)N12` (some centres not stated), the GI50 in assay [1], in assay [14], in assay [2], in assay [3], in [4] and in assay [15] was > 100 µM (inactive) in each case. In addition, the GI50 in assay [5], in assay [6], in assay [7], in [16], in assay [8] and in assay [17] was > 100 µM (inactive) throughout. The GI50 in assay [9], in assay [18], in [10], in assay [11], in assay [12] and in [13] was > 100 µM (inactive) throughout.

Turning to `CC1CC(=O)C(CC(=O)O)[C@H]1C(C(=O)C(=O)Nc1cc(Cl)ccc1Cl)[N+](=O)[O-]` (some centres not stated), the GI50 in [1], in [14], in [2], in [3], in assay [4] and in [15] was > 100 µM (inactive) in each case. Also, the GI50 in assay [5], in assay [6], in [7], in assay [16], in assay [8] and in assay [17] was > 100 µM (inactive) in each case. Besides, the GI50 in assay [18], in [10], in [11] and in [13] was > 100 µM (inactive) each time.

In the case of `COC(=O)C1=CCON(c2ccccc2)C1c1ccccc1` (configuration not stated), the GI50 is > 100 µM (inactive) in assay [1]; 42.9 µM (inactive) in assay [2]; 42.1 µM (inactive) in assay [3]; 45 µM (inactive) in assay [4]; > 100 µM (inactive) in assay [15]; 29.2 µM (inactive) in assay [6]. The GI50 in assay [7] is 48 µM (inactive); in [16] it was 75.3 µM (inactive); in [17], 43.5 µM (inactive); in assay [9], 65.8 µM (inactive); in assay [18], 62.8 µM (inactive); in assay [10], 31.3 µM (inactive). For the same molecule, the GI50 in assay [11] is 44.9 µM (inactive); in assay [13] it was 49.8 µM (inactive).

(Values after ChEMBL document CHEMBL1201862, “PubChem BioAssay data set” (2004).)
